Starred links: 1 amine or outer side, 2 acyl side, 3 side chain; linkers in the order of their positions; H or OH if unused. Positions of bridges follow the written chain, without caps; N, C: chain ends. Residues, ends and D or L forms follow the SMILES beside them. *: point of attachment. C18 diacid = O=C(O)CCCCCCCCCCCCCCCCC(=O)*; γGlu = O=C(O)[C@H](CCC(=O)[*:2])N[*:1]; AEEA = NCCOCCOCC(=O)O
The compounds below were run against T1, human natriuretic peptide receptor 2 (hNPR2) (Homo sapiens, UniProt P20594) (assay: In vitro hNPR2 activity assay (cGMP GloSensor reporter, HEK293)). Conditions: 0% HSA; HEK293-hNPR2/GloSensor cells.
T1 construct: expressed in transfected cells; host or cells: HEK293 (ATCC CRL-1573), clone 35, co-transfected with pGloSensor-42F
T1 sequence (P20594 23-1047): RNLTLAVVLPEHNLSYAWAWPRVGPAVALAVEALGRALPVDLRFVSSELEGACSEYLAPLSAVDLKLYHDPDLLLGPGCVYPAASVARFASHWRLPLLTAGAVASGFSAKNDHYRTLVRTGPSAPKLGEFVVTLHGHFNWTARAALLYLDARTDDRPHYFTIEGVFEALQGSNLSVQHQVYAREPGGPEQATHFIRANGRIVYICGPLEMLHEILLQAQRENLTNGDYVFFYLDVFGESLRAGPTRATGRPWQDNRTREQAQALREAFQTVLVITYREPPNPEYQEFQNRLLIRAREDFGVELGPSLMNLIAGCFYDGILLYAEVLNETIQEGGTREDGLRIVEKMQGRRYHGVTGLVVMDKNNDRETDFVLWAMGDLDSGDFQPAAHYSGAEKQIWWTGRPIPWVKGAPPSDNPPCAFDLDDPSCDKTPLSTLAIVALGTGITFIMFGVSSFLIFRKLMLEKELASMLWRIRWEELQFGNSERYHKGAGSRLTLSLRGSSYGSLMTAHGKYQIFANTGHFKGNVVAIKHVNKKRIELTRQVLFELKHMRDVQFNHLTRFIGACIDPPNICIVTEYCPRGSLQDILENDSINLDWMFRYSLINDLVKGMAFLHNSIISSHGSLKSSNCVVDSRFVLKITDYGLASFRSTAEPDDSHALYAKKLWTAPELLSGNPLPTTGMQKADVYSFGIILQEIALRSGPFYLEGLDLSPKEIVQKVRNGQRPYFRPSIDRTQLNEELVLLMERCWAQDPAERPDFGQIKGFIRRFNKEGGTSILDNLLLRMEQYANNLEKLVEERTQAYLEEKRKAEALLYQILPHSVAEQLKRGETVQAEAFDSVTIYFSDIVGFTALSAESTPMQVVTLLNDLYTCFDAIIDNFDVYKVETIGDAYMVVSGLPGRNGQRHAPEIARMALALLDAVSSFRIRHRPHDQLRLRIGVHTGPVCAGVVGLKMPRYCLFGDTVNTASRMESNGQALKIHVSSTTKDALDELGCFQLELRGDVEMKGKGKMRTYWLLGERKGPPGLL
Assay type: cell-based
In short: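 Potency is the EC50 from a four-parameter logistic fit, also expressed relative to the in-plate CNP22 control (×100), with at least two replicates. Compounds (ten concentrations, […], HSA-free diluent with 1% OVA, 0.01% Tween20) were incubated 30 min at 37 °C on HEK293 cells co-expressing hNPR2 and a GloSensor cGMP luciferase. Luminescence detected with Bright-Glo.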
Compound `CC[C@H](C)[C@@H]1NC(=O)[C@H](CCCNC(=N)N)NC(=O)[C@H](CC(=O)O)NC(=O)[C@H](CC(C)C)NC(=O)[C@H](CCCCN)NC(=O)[C@H](CC(C)C)NC(=O)CNC(=O)[C@H](Cc2ccccc2)NC(=O)[C@@H](NC(=O)CNC(=O)[C@H](CCC(N)=O)NC(=O)[C@H](CO)NC(=O)[C@H](CC(C)C)NC(=O)CNC(=O)[C@H](CCCCN)NC(=O)[C@H](CCCCN)NC(=O)[C@H](CCC(N)=O)NC(=O)[C@H](C)NC(=O)CNC(=O)[C@H](CCCCN)NC(=O)[C@H](Cc2ccc(O)cc2)NC(=O)[C@H](CCCCN)NC(=O)[C@H](CCCNC(=N)N)NC(=O)[C@H](C)NC(=O)COCCOCCNC(=O)COCCOCCNC(=O)COCCOCCNC(=O)COCCOCCNC(=O)CC[C@H](NC(=O)CC[C@H](NC(=O)CC[C@H](NC(=O)CC[C@H](NC(=O)CC[C@H](NC(=O)CCCCCCCCCCCCCCCCC(=O)O)C(=O)O)C(=O)O)C(=O)O)C(=O)O)C(=O)O)CSSC[C@@H](C(=O)O)NC(=O)CNC(=O)[C@H](CC(C)C)NC(=O)CNC(=O)[C@H](CO)NC(=O)[C@H](CC(C)C)NC(=O)[C@H](CO)NC(=O)CNC1=O` [compound 1463] ({C18 diacid-γGlu-γGlu-γGlu-γGlu-γGlu-AEEA-AEEA-AEEA-AEEA}-ARKYKGAQKKGLSQGCFGLKLDRIGSLSGLGC-OH; disulfide 16-32) has an EC50 of 0.3 nM.

Same assay, conditions: potency relative to CNP22 (0065)
`CC[C@H](C)[C@@H]1NC(=O)[C@H](CCCNC(=N)N)NC(=O)[C@H](CC(=O)O)NC(=O)[C@H](CC(C)C)NC(=O)[C@@H]2CCCN2C(=O)[C@H](CC(C)C)NC(=O)CNC(=O)[C@H](Cc2ccccc2)NC(=O)[C@@H](NC(=O)CNC(=O)[C@H](CCCCN)NC(=O)[C@H](CO)NC(=O)[C@H](CC(C)C)NC(=O)CNC(=O)[C@H](CCCCN)NC(=O)[C@H](CCCCN)NC(=O)[C@H](CCC(N)=O)NC(=O)[C@H](C)NC(=O)CNC(=O)[C@H](CCCCN)NC(=O)[C@H](Cc2ccc(O)cc2)NC(=O)[C@H](CCCCN)NC(=O)[C@H](CCCNC(=N)N)NC(=O)[C@H](C)NC(=O)COCCOCCNC(=O)COCCOCCNC(=O)CC[C@H](NC(=O)CC[C@H](NC(=O)CC[C@H](NC(=O)CC[C@H](NC(=O)CC[C@H](NC(=O)CC[C@H](NC(=O)CCCCCCCCCCCCCCCCC(=O)O)C(=O)O)C(=O)O)C(=O)O)C(=O)O)C(=O)O)C(=O)O)CSSC[C@@H](C(=O)O)NC(=O)CNC(=O)[C@H](CC(C)C)NC(=O)CNC(=O)[C@H](CO)NC(=O)[C@H](CC(C)C)NC(=O)[C@H](CO)NC(=O)CNC1=O` [compound 1460] ({C18 diacid-γGlu-γGlu-γGlu-γGlu-γGlu-γGlu-AEEA-AEEA}-ARKYKGAQKKGLSKGCFGLPLDRIGSLSGLGC-OH; disulfide 16-32) was tested, and the “hNPR2 0% HSA. [EC50% rel CNP]” value was 32.4%.
`CC[C@H](C)[C@@H]1NC(=O)[C@H](CCCNC(=N)N)NC(=O)[C@H](CC(=O)O)NC(=O)[C@H](CC(C)C)NC(=O)[C@@H]2CCCN2C(=O)[C@H](CC(C)C)NC(=O)CNC(=O)[C@H](Cc2ccccc2)NC(=O)[C@@H](NC(=O)CNC(=O)[C@H](CCC(N)=O)NC(=O)[C@H](CO)NC(=O)[C@H](CC(C)C)NC(=O)CNC(=O)[C@H](CCCCN)NC(=O)[C@H](CCCCN)NC(=O)[C@H](CCC(N)=O)NC(=O)[C@H](C)NC(=O)CNC(=O)[C@H](Cc2c[nH]cn2)NC(=O)[C@H](Cc2ccc(O)cc2)NC(=O)COCCOCCNC(=O)COCCOCCNC(=O)COCCOCCNC(=O)COCCOCCNC(=O)CC[C@H](NC(=O)CC[C@H](NC(=O)CCCCCCCCCCCCCCCCC(=O)O)C(=O)O)C(=O)O)CSSC[C@@H](C(=O)O)NC(=O)CNC(=O)[C@H](CC(C)C)NC(=O)CNC(=O)[C@H](CO)NC(=O)[C@H](CC(C)C)NC(=O)[C@H](CO)NC(=O)CNC1=O` [compound 1461] ({C18 diacid-γGlu-γGlu-AEEA-AEEA-AEEA-AEEA}-YHGAQKKGLSQGCFGLPLDRIGSLSGLGC-OH; disulfide 13-29) was tested, and the “hNPR2 0% HSA. [EC50% rel CNP]” value was 28.9%.
In the case of `CC[C@H](C)[C@@H]1NC(=O)[C@H](CCCNC(=N)N)NC(=O)[C@H](CC(=O)O)NC(=O)[C@H](CC(C)C)NC(=O)[C@@H]2CCCN2C(=O)[C@H](CC(C)C)NC(=O)CNC(=O)[C@H](Cc2ccccc2)NC(=O)[C@@H](NC(=O)CNC(=O)[C@H](CCCCN)NC(=O)[C@H](CO)NC(=O)[C@H](CC(C)C)NC(=O)CNC(=O)[C@H](CCCCN)NC(=O)[C@H](CCCCN)NC(=O)[C@H](CCC(N)=O)NC(=O)[C@H](C)NC(=O)CNC(=O)[C@H](CCCCN)NC(=O)[C@H](Cc2ccc(O)cc2)NC(=O)[C@H](CCCCN)NC(=O)[C@H](CCCNC(=N)N)NC(=O)[C@H](C)NC(=O)COCCOCCNC(=O)COCCOCCNC(=O)COCCOCCNC(=O)COCCOCCNC(=O)CC[C@H](NC(=O)CC[C@H](NC(=O)CC[C@H](NC(=O)CC[C@H](NC(=O)CC[C@H](NC(=O)CCCCCCCCCCCCCCCCC(=O)O)C(=O)O)C(=O)O)C(=O)O)C(=O)O)C(=O)O)CSSC[C@@H](C(=O)O)NC(=O)CNC(=O)[C@H](CC(C)C)NC(=O)CNC(=O)[C@H](CO)NC(=O)[C@H](CC(C)C)NC(=O)[C@H](CO)NC(=O)CNC1=O` [compound 1462] ({C18 diacid-γGlu-γGlu-γGlu-γGlu-γGlu-AEEA-AEEA-AEEA-AEEA}-ARKYKGAQKKGLSKGCFGLPLDRIGSLSGLGC-OH; disulfide 16-32), the “hNPR2 0% HSA. [EC50% rel CNP]” value is reported as 106.6%.
In the case of `CC[C@H](C)[C@@H]1NC(=O)[C@H](CCCNC(=N)N)NC(=O)[C@H](CC(=O)O)NC(=O)[C@H](CC(C)C)NC(=O)[C@H](CCCCN)NC(=O)[C@H](CC(C)C)NC(=O)CNC(=O)[C@H](Cc2ccccc2)NC(=O)[C@@H](NC(=O)CNC(=O)[C@H](CCC(N)=O)NC(=O)[C@H](CO)NC(=O)[C@H](CC(C)C)NC(=O)CNC(=O)[C@H](CCCCN)NC(=O)[C@H](CCCCN)NC(=O)[C@H](CCC(N)=O)NC(=O)[C@H](C)NC(=O)CNC(=O)[C@H](CCCCN)NC(=O)[C@H](Cc2ccc(O)cc2)NC(=O)[C@H](CCCCN)NC(=O)[C@H](CCCNC(=N)N)NC(=O)[C@H](C)NC(=O)COCCOCCNC(=O)COCCOCCNC(=O)COCCOCCNC(=O)COCCOCCNC(=O)CC[C@H](NC(=O)CC[C@H](NC(=O)CC[C@H](NC(=O)CC[C@H](NC(=O)CC[C@H](NC(=O)CCCCCCCCCCCCCCCCC(=O)O)C(=O)O)C(=O)O)C(=O)O)C(=O)O)C(=O)O)CSSC[C@@H](C(=O)O)NC(=O)CNC(=O)[C@H](CC(C)C)NC(=O)CNC(=O)[C@H](CO)NC(=O)[C@H](CC(C)C)NC(=O)[C@H](CO)NC(=O)CNC1=O` [compound 1463] ({C18 diacid-γGlu-γGlu-γGlu-γGlu-γGlu-AEEA-AEEA-AEEA-AEEA}-ARKYKGAQKKGLSQGCFGLKLDRIGSLSGLGC-OH; disulfide 16-32), the “hNPR2 0% HSA. [EC50% rel CNP]” value is reported as 20.0%.
For `CC[C@H](C)[C@@H]1NC(=O)[C@H](CCCNC(=N)N)NC(=O)[C@H](CC(=O)O)NC(=O)[C@H](CC(C)C)NC(=O)[C@@H]2CCCN2C(=O)[C@H](CC(C)C)NC(=O)CNC(=O)[C@H](Cc2ccccc2)NC(=O)[C@@H](NC(=O)CNC(=O)[C@H](CCC(N)=O)NC(=O)[C@H](CO)NC(=O)[C@H](CC(C)C)NC(=O)CNC(=O)[C@H](CCCCN)NC(=O)[C@H](CCCCN)NC(=O)[C@H](CC(N)=O)NC(=O)[C@H](C)NC(=O)CNC(=O)[C@H](CCCCN)NC(=O)[C@H](Cc2ccc(O)cc2)NC(=O)[C@H](CCCCN)NC(=O)[C@H](CCCNC(=N)N)NC(=O)[C@H](C)NC(=O)COCCOCCNC(=O)COCCOCCNC(=O)COCCOCCNC(=O)COCCOCCNC(=O)CC[C@H](NC(=O)CC[C@H](NC(=O)CC[C@H](NC(=O)CC[C@H](NC(=O)CC[C@H](NC(=O)CCCCCCCCCCCCCCCCC(=O)O)C(=O)O)C(=O)O)C(=O)O)C(=O)O)C(=O)O)CSSC[C@@H](C(=O)O)NC(=O)CNC(=O)[C@H](CC(C)C)NC(=O)CNC(=O)[C@H](CO)NC(=O)[C@H](CC(C)C)NC(=O)[C@H](CO)NC(=O)CNC1=O` [compound 1464] ({C18 diacid-γGlu-γGlu-γGlu-γGlu-γGlu-AEEA-AEEA-AEEA-AEEA}-ARKYKGANKKGLSQGCFGLPLDRIGSLSGLGC-OH; disulfide 16-32; C-terminus assumed), the “hNPR2 0% HSA. [EC50% rel CNP]” value was 48.8%.
